Our source for the IC50 values is US7521469B2, “Phosphinic amino acid compounds” (Les Laboratoires Servier, priority 2005, dated 2009).

A word on the IC50: it is the concentration needed to halve the response being measured.

Experiment [1] addresses ACE (recombinant human form) (Homo sapiens, UniProt P12821). As to the kind of experiment: In vitro inhibitory effect on angiotensin converting enzyme (ACE), quenched-fluorescence substrate. Format: biochemical. Conditions: inhibitor incubated with enzyme 45 minutes; substrate Mca-Arg-Pro-Pro-Gly-Phe-Ser-Pro-DpaCOOH 5 μM. The protocol:
(§1) In vitro inhibitory effect on angiotensin converting enzyme (ACE) and endothelin converting enzyme (ECE)
(§2) In order to compare their specificity, the compounds of the Examples were tested on 2 enzymes: ACE (recombinant human form) and ECE (recombinant human form of the isoform ECE-1c).
(§3) The tests were carried out in duplicate in 96-well plates. The inhibitor was incubated together with the enzyme for 45 minutes before the addition of a quenched-fluorescence substrate. The fluorescence emitted was detected and measured in a Fluoroscan Ascent plate reader (Thermo-Labsystems).
(§4) The fluorogenic substrates used are: Mca-Arg-Pro-Pro-Gly-Phe-Ser-Pro-DpaCOOH (5 μM) with ACE, and Mca-Arg-Pro-Pro-Gly-Phe-Ser-Ala-Phc-Lys(Dnp)COOH (5 μM; R&D Systems) with ECE.

Experiment [2] has as its target T1, ECE (recombinant human form of the isoform ECE-1c) (Homo sapiens, UniProt P42892).
T1 sequence (P42892 1-754 isoform P42892-3): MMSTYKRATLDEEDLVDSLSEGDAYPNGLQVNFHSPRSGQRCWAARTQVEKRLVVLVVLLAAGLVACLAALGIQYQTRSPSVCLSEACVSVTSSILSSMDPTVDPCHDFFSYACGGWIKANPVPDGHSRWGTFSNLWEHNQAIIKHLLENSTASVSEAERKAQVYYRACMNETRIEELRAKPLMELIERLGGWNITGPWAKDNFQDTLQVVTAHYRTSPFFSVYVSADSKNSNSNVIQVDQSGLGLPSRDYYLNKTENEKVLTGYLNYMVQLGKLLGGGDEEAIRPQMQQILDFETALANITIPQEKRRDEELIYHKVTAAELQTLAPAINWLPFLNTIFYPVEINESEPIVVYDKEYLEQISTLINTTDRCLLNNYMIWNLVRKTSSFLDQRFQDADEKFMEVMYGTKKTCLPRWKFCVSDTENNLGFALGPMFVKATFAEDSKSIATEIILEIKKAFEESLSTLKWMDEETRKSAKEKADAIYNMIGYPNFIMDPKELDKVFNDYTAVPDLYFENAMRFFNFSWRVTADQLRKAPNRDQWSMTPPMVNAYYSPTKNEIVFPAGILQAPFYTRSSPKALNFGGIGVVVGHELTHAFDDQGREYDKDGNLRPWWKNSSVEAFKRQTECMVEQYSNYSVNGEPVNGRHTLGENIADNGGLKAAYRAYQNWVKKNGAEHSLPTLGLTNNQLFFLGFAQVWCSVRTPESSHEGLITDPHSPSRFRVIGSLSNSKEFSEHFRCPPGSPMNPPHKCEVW
As to the kind of experiment: In vitro inhibitory effect on endothelin converting enzyme (ECE), quenched-fluorescence substrate. Format: biochemical. Conditions: inhibitor incubated with enzyme 45 minutes; substrate Mca-Arg-Pro-Pro-Gly-Phe-Ser-Ala-Phc-Lys(Dnp)COOH 5 μM. The protocol:
as §1, §2, §3, §4

Chain of ACE (recombinant human form) (P12821 30-1306): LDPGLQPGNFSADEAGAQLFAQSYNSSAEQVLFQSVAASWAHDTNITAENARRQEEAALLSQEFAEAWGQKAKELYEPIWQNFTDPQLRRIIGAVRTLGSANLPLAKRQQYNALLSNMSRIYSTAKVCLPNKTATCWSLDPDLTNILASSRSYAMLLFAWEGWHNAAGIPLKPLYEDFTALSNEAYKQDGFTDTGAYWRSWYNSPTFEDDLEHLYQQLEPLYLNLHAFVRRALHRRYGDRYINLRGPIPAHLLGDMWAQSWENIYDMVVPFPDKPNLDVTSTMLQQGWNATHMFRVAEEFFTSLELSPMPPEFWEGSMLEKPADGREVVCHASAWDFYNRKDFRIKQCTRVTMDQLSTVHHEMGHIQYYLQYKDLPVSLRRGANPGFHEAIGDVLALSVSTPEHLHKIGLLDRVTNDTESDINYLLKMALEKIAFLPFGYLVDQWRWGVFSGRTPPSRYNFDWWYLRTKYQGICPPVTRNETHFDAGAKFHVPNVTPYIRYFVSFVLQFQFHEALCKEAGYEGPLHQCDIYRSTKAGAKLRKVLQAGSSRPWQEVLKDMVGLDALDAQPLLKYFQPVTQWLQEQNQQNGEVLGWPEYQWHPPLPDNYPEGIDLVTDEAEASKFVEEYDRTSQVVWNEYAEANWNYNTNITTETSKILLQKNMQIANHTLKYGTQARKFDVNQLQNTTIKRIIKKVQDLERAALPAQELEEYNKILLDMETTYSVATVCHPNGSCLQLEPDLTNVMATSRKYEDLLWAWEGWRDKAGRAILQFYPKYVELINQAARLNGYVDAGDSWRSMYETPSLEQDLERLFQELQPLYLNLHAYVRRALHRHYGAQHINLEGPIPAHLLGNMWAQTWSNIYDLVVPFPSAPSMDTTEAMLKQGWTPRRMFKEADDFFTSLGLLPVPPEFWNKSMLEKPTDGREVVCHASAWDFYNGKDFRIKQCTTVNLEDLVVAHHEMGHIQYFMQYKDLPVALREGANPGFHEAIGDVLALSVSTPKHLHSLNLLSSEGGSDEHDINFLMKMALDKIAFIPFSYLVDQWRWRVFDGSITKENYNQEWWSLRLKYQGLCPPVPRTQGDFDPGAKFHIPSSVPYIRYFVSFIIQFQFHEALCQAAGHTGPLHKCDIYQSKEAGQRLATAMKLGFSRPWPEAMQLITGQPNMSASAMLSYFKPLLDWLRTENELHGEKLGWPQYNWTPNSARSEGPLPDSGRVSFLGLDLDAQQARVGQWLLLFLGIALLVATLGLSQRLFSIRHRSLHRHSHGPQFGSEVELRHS

On to `O=C(N[C@@H](Cc1ccccc1)P(=O)(O)C[C@H](Cc1cc(-c2ccccc2)no1)C(=O)N[C@@H](Cc1ccccc1)C(=O)O)OCc1ccccc1` [Example 2, (5R,8R,11S)-5,11-Dibenzyl-6-hydroxy-3,9-dioxo-1-phenyl-8-[(3-phenyl-5-isoxazolyl)methyl]-2-oxa-4,10-diaza-6-phosphadodecan-12-oic acid 6-oxide], for which the IC50 in experiment [1] was 3.8 nM; in experiment [2], 7.7 nM.
As to `O=C(N[C@@H](Cc1ccccc1)P(=O)(O)C[C@H](Cc1cc(-c2ccccc2)no1)C(=O)N[C@@H](Cc1c[nH]c2ccccc12)C(=O)O)OCc1ccccc1` [Example 1, (5R,8R,11S)-5-Benzyl-6-hydroxy-11-(1H-indol-3-ylmethyl)-3,9-dioxo-1-phenyl-8-[(3-phenyl-5-isoxazolyl)methyl]-2-oxa-4,10-diaza-6-phosphadodecan-12-oic acid 6-oxide], the IC50 in experiment [1] amounted to 36 nM; in experiment [2] it was 8 nM.
Taken in the same sequence, the figures for `O=C(N[C@@H](Cc1ccccc1)P(=O)(O)C[C@H](Cc1cc(-c2ccccc2)no1)C(=O)N[C@@H](Cc1ccc(O)cc1)C(=O)O)OCc1ccccc1` [Example 3, (5R,8R,11S)-5-Benzyl-6-hydroxy-11-(4-hydroxybenzyl)-3,9-dioxo-1-phenyl-8-[(3-phenyl-5-isoxazolyl)methyl]-2-oxa-4,10-diaza-6-phosphadodecan-12-oic acid 6-oxide] were 1.4 nM and 1.4 nM.
